Experimental data published in US20210106542A1, “COMPOSITION AND METHOD FOR INHIBITING PLATELET AGGREGATION” (priority 2015, published 2021).

How the values were obtained:
thrombin production = assay: Thrombin generation test; assay type: biochemical, human
Method: Thrombin generation test, a clinical test to determine if a drug impedes blood clotting, was conducted as described below. […] The results are shown in Table 11, below, and in FIG. 5. The RQN combination decreased thrombin in a manner similar to other commonly used anti-platelet drugs, further indicating the safety of the RQN combination.

SAPs = assay: SAP reduction compared to known anti-platelet drugs; assay type: cell-based, human
Method: SAPs were analyzed in the presence of resveratrol, quercetin, and naltrexone and compared to known anti-platelet drugs. Student's t-test with Turkey Post Hoc correction was used to determine significance levels comparing untreated to drug treated samples. The appropriate doses for other anti-platelet drugs were established by routine clinical use.

[1] = cited from earlier work; for Bioavailability: literature reference
[2] = test system: superactivated platelets (SAPs); assay: SAP inhibition by combinatorial drug treatment (flow cytometry of PRP); assay type: cell-based, human; details: 50 μM; PRP 30 minutes at 37° C.; normalized relative to Control
Method: A venipuncture sample of 10 mL of blood is obtained from each patient. Of the 10 mL, a 3 mL aliquot of blood is added to a tube containing 0.5 mL of acid-citrate-dextrose solution (38 mM citric acid, 75 mM sodium citrate, 135 mM glucose) to prevent clotting. […] After centrifuging at 1100 rpm for 10 minutes at room temperature, platelet rich plasma (PRP), which is the upper layer, is removed. The PRP is transferred to a new tube, leaving about 0.5 mL above the buffy coat layer. The PRP-containing tube is incubated with 10 μL of thrombin and convulxin, two agonists that activate the platelets, for five minutes. […] APC-SA recognizes superactivated platelets that more readily bind the biotinylated fibrinogen to their surface. […]
Each sample is analyzed by a Beckman Coulter CyAn flow cytometer (Beckman Coulter, Fullerton, Calif.). Results are analyzed by the Summit program (Beckman Coulter). […] The SAPs are expressed as a percentage of the total number of events in the sample. […]
Aliquots of platelet rich plasma (PRP) were incubated with aqueous saline solutions of resveratrol only, quercetin only, naltrexone only, and with an admixture of resveratrol, quercetin and naltrexone (RQN) for a time period of 30 minutes at 37° C. […] Multi-color immunofluorescence was noted, and analyzed as described in Example 1, above.

POAG subject platelets = assay: SAP levels at varying doses of R, Q, N alone or in combination, POAG subject; assay type: cell-based, human; details: POAG patient
Method: (§1) Resveratrol, quercetin and naltrexone were tested in vitro using 100-microliter assay solutions with (A) a control subject platelets and (B) a POAG subject platelets. A marked reduction in SAPs at 1 μM resveratrol, 1 μM quercetin, 1 μM naltrexone in both the control subject platelets and the POAG patient's platelets was observed, representing a synergistic decrease as compared to the compounds alone.

[3] = test system: control subject platelets; assay: SAP levels at varying doses of R, Q, N alone or in combination, control subject; assay type: cell-based, human; details: control patient
Method: as §1

CC(=O)Oc1ccccc1C(=O)O [Aspirin]
Thrombin % Decrease (thrombin production; 100 μM, Alzheimer's (n = 6)): −75.46% | Thrombin % Decrease (thrombin production; 100 μM, Control (n = 6)): −76.05% | Thrombin % Decrease (thrombin production; 100 μM, POAG (n = 6)): −104.39% | SAP % Decrease (SAPs; 100 μM, Alzheimer's (n = 6)): −17.32% | SAP % Decrease (SAPs; 100 μM, Control (n = 6)): −17.00% | SAP % Decrease (SAPs; 100 μM, POAG (n = 6)): −26.69%

CC(C)Cc1ccc(C(C)C(=O)O)cc1 (stereo not drawn) [Ibuprofen]
Thrombin % Decrease (thrombin production; 100 μM, Alzheimer's (n = 6)): −95.08% | Thrombin % Decrease (thrombin production; 100 μM, Control (n = 6)): −106.45% | Thrombin % Decrease (thrombin production; 100 μM, POAG (n = 6)): −101.37% | SAP % Decrease (SAPs; 100 μM, Alzheimer's (n = 6)): −15.30% | SAP % Decrease (SAPs; 100 μM, Control (n = 6)): −31.40% | SAP % Decrease (SAPs; 100 μM, POAG (n = 6)): −16.84%

O=C1CC[C@@]2(O)[C@H]3Cc4ccc(O)c5c4[C@@]2(CCN3CC2CC2)[C@H]1O5 [Naltrexone, 17-(cyclopropylmethyl)-4,5α-epoxy-3,14-dihydroxymorphinan-6-one]
Bioavailability [1]: 33%^3 | % Reduction in SAPs [2]: 52.2% | % SAPs [2]: 47.8% | SAP % (POAG subject platelets; R/Q/N 0/0/1 uM): 44.27% | SAP % Change (POAG subject platelets; R/Q/N 0/0/1 uM): −22.17% | SAP % (POAG subject platelets; R/Q/N 0/0/10 uM): 40.84% | SAP % Change (POAG subject platelets; R/Q/N 0/0/10 uM): −28.20% | SAP % (POAG subject platelets; R/Q/N 0/0/50 uM): 38.93% | SAP % Change (POAG subject platelets; R/Q/N 0/0/50 uM): −31.56% | SAP % ([3]; R/Q/N 0/0/1 uM): 30.80% | SAP % Change ([3]; R/Q/N 0/0/1 uM): −15.13% | SAP % ([3]; R/Q/N 0/0/10 uM): 20.77% | SAP % Change ([3]; R/Q/N 0/0/10 uM): −42.77% | SAP % ([3]; R/Q/N 0/0/50 uM): 18.03% | SAP % Change ([3]; R/Q/N 0/0/50 uM): −50.32%

O=c1c(O)c(-c2ccc(O)c(O)c2)oc2cc(O)cc(O)c12 [Quercetin, 3,3′,4′5,7-pentahydroxy-2-phenylchromen-4-one]
Bioavailability [1]: 11%^2 | SAP % (POAG subject platelets; R/Q/N 0/1/0 uM): 49.18% | SAP % Change (POAG subject platelets; R/Q/N 0/1/0 uM): −13.54% | SAP % (POAG subject platelets; R/Q/N 0/5/0 uM): 48.25% | SAP % Change (POAG subject platelets; R/Q/N 0/5/0 uM): −15.17% | SAP % (POAG subject platelets; R/Q/N 0/10/0 uM): 43.27% | SAP % Change (POAG subject platelets; R/Q/N 0/10/0 uM): −23.93% | SAP % ([3]; R/Q/N 0/1/0 uM): 30.36% | SAP % Change ([3]; R/Q/N 0/1/0 uM): −16.34% | SAP % ([3]; R/Q/N 0/5/0 uM): 30.53% | SAP % Change ([3]; R/Q/N 0/5/0 uM): −15.87% | SAP % ([3]; R/Q/N 0/10/0 uM): 21.47% | SAP % Change ([3]; R/Q/N 0/10/0 uM): −40.84%

Oc1ccc(/C=C/c2cc(O)cc(O)c2)cc1 [Resveratrol, 3,5,4′-trihydroxy-trans-stilbene]
Half-life ([1]; in vivo): 1 to 3 h | Bioavailability [1]: 5%^1 | SAP % (POAG subject platelets; R/Q/N 1/0/0 uM): 53.30% | SAP % Change (POAG subject platelets; R/Q/N 1/0/0 uM): −6.29% | SAP % (POAG subject platelets; R/Q/N 5/0/0 uM): 53.78% | SAP % Change (POAG subject platelets; R/Q/N 5/0/0 uM): −5.45% | SAP % (POAG subject platelets; R/Q/N 10/0/0 uM): 43.53% | SAP % Change (POAG subject platelets; R/Q/N 10/0/0 uM): −23.47% | SAP % ([3]; R/Q/N 1/0/0 uM): 32.20% | SAP % Change ([3]; R/Q/N 1/0/0 uM): −11.27% | SAP % ([3]; R/Q/N 5/0/0 uM): 30.98% | SAP % Change ([3]; R/Q/N 5/0/0 uM): −14.63% | SAP % ([3]; R/Q/N 10/0/0 uM): 30.24% | SAP % Change ([3]; R/Q/N 10/0/0 uM): −16.67%

O=C(NC[C@H]1CN(c2ccc(N3CCOCC3=O)cc2)C(=O)O1)c1ccc(Cl)s1 [Rivaroxaban]
Thrombin % Decrease (thrombin production; 1 μM, Alzheimer's (n = 6)): −186.56% | Thrombin % Decrease (thrombin production; 1 μM, Control (n = 6)): −183.06% | Thrombin % Decrease (thrombin production; 1 μM, POAG (n = 6)): −184.65% | SAP % Decrease (SAPs; 1 μM, Alzheimer's (n = 6)): −15.63% | SAP % Decrease (SAPs; 1 μM, Control (n = 6)): −23.38% | SAP % Decrease (SAPs; 1 μM, POAG (n = 6)): −48.73%

Dabigatran
Thrombin % Decrease (thrombin production; 100 μM, Alzheimer's (n = 6)): −109.55% | Thrombin % Decrease (thrombin production; 100 μM, Control (n = 6)): −101.97% | Thrombin % Decrease (thrombin production; 100 μM, POAG (n = 6)): −100.45% | SAP % Decrease (SAPs; 100 μM, Alzheimer's (n = 6)): −8.09% | SAP % Decrease (SAPs; 100 μM, Control (n = 6)): −0.16% | SAP % Decrease (SAPs; 100 μM, POAG (n = 6)): −11.21%
